Legend:
crenactin [1] = biological target: T1, crenactin (Pyrobaculum calidifontis, UniProt A3MWN5); assay: cryoEM helical reconstruction, […] A; assay type: binding; settings: filament polymerised with 2 mM ATP and 4 mM MgCl2, 50 mM NH4HCO3, 20 mM KCl, on ice; ATPase active site
T1 construct: gene cren-1; full length 1-432, N-terminal His6-SUMO tag cleaved by SENP1; E. coli C41(DE3), codon-optimised gene; double helical filament (homopolymer); model residues 5-430

crenactin [2] = biological target: T1, crenactin; assay: […] degree light scattering, polymerisation; assay type: biochemical; settings: 3 uM crenactin, 2 mM ATP, 4 mM MgCl2, 50 mM NH4HCO3, 50 mM NaCl, 8% PEG 8000, 25 C

T1 sequence (A3MWN5 whole entry, the tested form may be a part): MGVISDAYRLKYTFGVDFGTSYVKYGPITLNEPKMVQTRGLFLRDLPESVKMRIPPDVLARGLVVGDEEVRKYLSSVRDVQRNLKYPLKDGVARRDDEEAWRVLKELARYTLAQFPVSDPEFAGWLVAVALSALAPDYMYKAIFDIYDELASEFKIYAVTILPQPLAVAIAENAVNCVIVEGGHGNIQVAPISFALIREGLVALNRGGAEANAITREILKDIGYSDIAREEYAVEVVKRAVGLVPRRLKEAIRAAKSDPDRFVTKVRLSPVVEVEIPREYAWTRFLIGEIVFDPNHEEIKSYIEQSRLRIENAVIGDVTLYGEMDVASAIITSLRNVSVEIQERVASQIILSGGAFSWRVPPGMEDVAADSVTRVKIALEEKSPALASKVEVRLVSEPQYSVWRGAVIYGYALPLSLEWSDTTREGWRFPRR

| SMILES | cryoEM helical reconstruction, 3.8 A (crenactin [1]) | 90 degree light scattering, polymerisation (crenactin [2]) |
| --- | --- | --- |
| Nc1ncnc2c1ncn2[C@@H]1O[C@H](COP(=O)(O)OP(=O)(O)O)[C@@H](O)[C@H]1O [ADP] | The cryoEM density for the ADP nucleotide is superimposed. |  |
| Nc1ncnc2c1ncn2[C@@H]1O[C@H](COP(=O)(O)OP(=O)(O)OP(=O)(O)O)[C@@H](O)[C@H]1O [ATP] |  | Addition of ATP to crenactin resulted in an increase of scattering |

— article PMC5173319, “Crenactin forms actin-like double helical filaments regulated by arcadin-2” (eLife, 2016)
